Source: ChEMBL document CHEMBL1126422, “The preparation of novel dopamine analogues via palladium catalysed cyclisation reactions” (Bioorg Med Chem Lett, 1992)

Target: D(3) dopamine receptor (Rattus norvegicus, UniProt P19020)
Assay: Compound was tested for binding affinity at the rat Dopamine receptor D3 expressed in Chinese hamster ovary cells; No significant affinity.
Type: cell-based

D(3) dopamine receptor, sequence (P19020 whole entry): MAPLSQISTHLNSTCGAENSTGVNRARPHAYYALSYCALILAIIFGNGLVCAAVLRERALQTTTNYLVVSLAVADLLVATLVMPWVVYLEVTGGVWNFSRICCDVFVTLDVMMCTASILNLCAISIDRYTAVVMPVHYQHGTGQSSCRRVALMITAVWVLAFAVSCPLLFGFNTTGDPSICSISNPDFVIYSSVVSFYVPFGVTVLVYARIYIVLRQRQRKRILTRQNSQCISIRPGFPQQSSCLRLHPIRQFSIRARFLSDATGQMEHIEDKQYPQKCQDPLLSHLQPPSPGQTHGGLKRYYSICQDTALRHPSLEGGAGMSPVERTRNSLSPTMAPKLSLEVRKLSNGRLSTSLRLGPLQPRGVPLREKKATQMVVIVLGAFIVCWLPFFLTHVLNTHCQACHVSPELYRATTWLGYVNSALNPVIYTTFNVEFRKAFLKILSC

SMILES	Log Ki
C=C1c2ccccc2OC[C@@H]1NCCC.Cl	> -6.5
CCCN[C@H]1COc2ccccc2[C@@H]1C.Cl	< -6.5
